Assay results published in patent US8486429B2, “Storage stable formulation and a process for its preparation” (priority 2005, dated 2013).
Where two headings read alike, the source gives them in different places.

How the values were obtained:
rats [1] = conditions: cited from earlier work
mice = conditions: cited from earlier work
rats [2] = conditions: cited from earlier work; remark: listed apart in the source
rabbits = conditions: cited from earlier work
[3] = cited from earlier work
[4] = cited from earlier work; for DT50 (hydrolysis): 40° C.; for DT 50 (calculated) (hydrolysis): 20° C.
rats [5] = conditions: cited from earlier work; remark: listed apart in the source
insect = assay: Synergistic insecticidal effect of Imidacloprid + Acephate (mortality, Colby's method); assay type: in vivo
Protocol: Synergism can be calculated by using the Colby's method i.e. the expected (or predicted) response of the combination is calculated by taking the product of the observed response for each individual component of the combination when applied alone divided by 100 and subtracting this value from the sum of observed response for each component when applied alone. Synergism of the combination is then determined by comparing the observed response of the combination to the expected (or predicted) response as calculated from the observed response of each individual component alone. If the observed response of the combination is greater than the expected (or predicted) response then the combination is said to be synergistic and falls within the definition of synergistic effect. (Colby, S. R., Weeds, 1967(15), p. 20-22)

[6] = AHS stability study in trilaminated pouches, 14 days at 30, 45 and 54° C.: active content and pH of 1% aq. solution/suspension; assay type: physicochemical; conditions: for extent to which Acephate degrades: 54° C.
Protocol: Acephate technical of 97.5% purity was taken and kept in AHS stability study at 30, 45 and 54° C. in trilaminated pouches. The results of the AHS experiment for Acephate Technical are seen in the following Tables 1, 2 and 3.
40 gm Acephate technical of 97.5% purity was taken from plant and mixed with 10 gm of citric acid by using laboratory made mixture to obtained homogenious powder and is then kept in AHS at 30, 45 and 54° C. in trilaminated pouches.
40 gm Acephate technical of 97.5% purity was taken from plant and mixed with 5 gm of citric acid by using laboratory made mixture to obtained homogenious powder and is the kept in AHS at 30, 45 and 54° C. in trilaminated pouches.
48 gm Acephate technical of 97.5% purity was taken from plant and mixed with 2 gm of citric acid by using laboratory made mixture to obtained homogenious powder and is the kept in AHS at 30, 45 and 54° C. in trilaminated pouches.
Acephate technical of 97.5% purity was taken from the plant and mixed in a laboratory mixer by adding 1% water and was then kept in AHS stability study at 30° C., 45° C. and 54° C. in trilaminated pouches.
Acephate technical of 97.5% purity was taken from the plant and mixed in laboratory mixer by adding 1% water 4% citric acid and was then kept in AHS stability study at 30, 45 and 54° C. in trilaminated pouches.
Imidacloprid technical was taken from the plant and is kept in AHS stability study at 30, 45 and 54° C. in trilaminated pouches.
Imidacloprid technical was taken from the plant and mixed in laboratory mixer by adding 1% water and is then is kept in AHS stability study at 45 and 54° C. in trilaminated pouches.
40 gm of Imidacloprid technical and 10 gm of citric acid was mixed in laboratory mixer and was then kept in AHS stability study at 30, 45 and 54° C. in trilaminated pouches,
45 gm of Imidacloprid technical and 05 gm of citric acid was mixed in laboratory mixer and was then kept in AHS stability study at 30° C., 45° C. and 54° C. in trilaminated pouches.
48 gm of Imidacloprid technical and 2 gm of citric acid was mixed in laboratory mixer and was then kept in AHS stability study at 30, 45 and 54° C. in trilaminated pouches.
49.5 gm of Imidacloprid technical and 0.5 gm of citric acid was mixed in laboratory mixer and was then kept in AHS stability study at 30, 45 and 54° C. in trilaminated pouches.
Imidacloprid technical was taken from plant and mixed in laboratory mixer by adding 10 gm citric acid and 2 gm water and is then is kept in AHS stability study at 30, 45 and 54° C. in trilaminated pouches,
Imidacloprid technical was taken from the plant and mixed in laboratory mixer by adding 5 gm citric acid and 2 gm water and was then kept in AHS stability study at 30, 45 and 54° C. in trilaminated pouches.
53 gm of Acephate technical was taken from the plant and mixed in a laboratory mixer by adding 3 gm imidacloprid without coating and without any citric acid. This was then kept in AHS stability study at 30, 45 and 54° C. in trilaminated pouches.
53 gm of Acephate technical was taken from the plant and mixed in a laboratory mixer by adding 3 gm imidacloprid without encapsulation and with 2.2 gm of citric acid . This was then kept in AHS stability study at 30, 45 and 54° C. in trilaminated pouches.
In a laboratory plough shear mixture 291.5 gm of Imidacloprid of particle size ranging from 15 micron to 50 micron was charged and blended by operating only the plough. Then 204 gm PEG-8000 was heated in a separate vessel at 65° C. for 15 min. […]

crop plants = conditions: in vivo; cited from earlier work
[7] = in vivo; cited from earlier work
[8] = mammals, oral administration, within 24 hours, almost entirely in the urine; cited from earlier work

Q: For `C/C(=N\C#N)N(C)Cc1ccc(Cl)nc1` [Acetamiprid], which “acute oral LD50” value (rats [1]; female rats) is on record?
A: 146 mg/kg

Q: What about the “acute oral LD50” value (rats [1]; male rats) of the same compound?
A: 217 mg/kg

Q: What about the “acute oral LD50” value (mice; female mice) of the same compound?
A: 184 mg/kg

Q: What about the “acute oral LD50” value (mice; male mice) of the same compound?
A: 198 mg/kg

Q: And the “Acute percutaneous LD50” value (rats [2]; male and female rats)?
A: > 2000 mg/kg

Q: And the “irritation to skin and eyes” value (rabbits)?
A: Non irritating

Q: What about the “solubility in organic solvents” value ([3]; acetone, methanol, ethanol, dichloromethane, chloroform, acetonitrile and tetrahydrofuron) of the same compound?
A: soluble

Q: What about the “stability in buffered solutions” value ([4]; pH 4, 5, 7) of the same compound?
A: Stable

Q: What about the “stability” value ([4]; pH 9 and 45° C.) of the same compound?
A: Degraded slowly

Q: And the “stability under sunlight” value ([4]; sunlight)?
A: Stable

Q: And the “inhalation LC50 (4 h)” value (rats [5]; male and female rats)?
A: > 0.29 mg/L

Q: For `COP(=O)(NC(C)=O)SC` (stereo not shown) [Experiment 1, O,S-dimethylacetylphosphoramidothioate], which “Observed Mortality %” value (insect; Imidacloprid 0 ppm, Acephate 600 ppm) is on record?
A: 52.50%

Q: What about the “Observed Mortality %” value (insect; Imidacloprid 0 ppm, Acephate 700 ppm) of the same compound?
A: 60.00%

Q: What about the “Observed Mortality %” value (insect; Imidacloprid 0 ppm, Acephate 800 ppm) of the same compound?
A: 70.00%

Q: And the “extent to which Acephate degrades” value ([6]; presence of 1% moisture, absence of Citric acid, initial pH of 4.70)?
A: 12.84%

Q: What about the “extent to which Acephate degrades” value ([6]; presence of Citric acid and 1% moisture, initial pH 3.18) of the same compound?
A: 6.88%

Q: And the solubility in ethanol ([3]; 20° C.)?
A: > 100 mg/mL

Q: And the solubility in water ([3]; 20° C.)?
A: about 790 g/l

Q: And the “DT50 (hydrolysis)” value ([4]; pH 3)?
A: 710 h

Q: And the “DT50 (hydrolysis)” value ([4]; pH 9)?
A: 60 h

Q: And the “phytotoxicity” value (crop plants)?
A: non-phytotoxic to most crop plants

Q: Which “Observed Mortality %” value (insect; Imidacloprid 24 ppm, Acephate 0 ppm) does the source give for `O=[N+]([O-])NC1=NCCN1Cc1ccc(Cl)nc1` [Experiment 7, 1-(6-chloro-3-pyridylmet-hyl)-N-nitroimidazolidin-2-yldeneamine] here?
A: 55.00%

Q: And the “Observed Mortality %” value (insect; Imidacloprid 27 ppm, Acephate 0 ppm)?
A: 69.25%

Q: And the “Observed Mortality %” value (insect; Imidacloprid 30 ppm, Acephate 0 ppm)?
A: 72.10%

Q: And the “Stability of Imidacloprid” value ([6]; pH of 2.68, Imidacloprid:citric acid 40:10)?
A: still more unstable

Q: And the “Stability of Imidacloprid” value ([6]; pH of 3.60, Imidacloprid:Citric acid 49.5:0.5)?
A: unstable

Q: What about the “Stability of Imidacloprid” value ([6]; pH of 5.90) of the same compound?
A: stable

Q: What about the “Acute percutaneous LD50 (24 h)” value (rats [2]; rats, 24 h) of the same compound?
A: > 5000 mg/kg

Q: And the “irritation to skin and eyes” value (rabbits)?
A: Non irritating

Q: What about the “skin sensitisation” value [7] of the same compound?
A: Not a skin sensitiser

Q: What about the solubility in hexane ([3]; 20° C.) of the same compound?
A: < 0.1 mg/mL

Q: What about the “Stability of imidacloprid reported in literature” value ([4]; pH of 5.60) of the same compound?
A: stable

Q: And the “inhalation LC50 (4 h)” value (rats [5]; female rats, aerosol)?
A: > 5323 mg/m^3 air

Q: What does the source list for `CCN(CC)C(=O)C(Cl)=C(C)OP(=O)(OC)OC` [Phosphamidon, 2-chloro-2-diethylcarbamoyl-1-methylvinyldimethylphosphate]?
A: % of the dose excreted [8]: 85-90%; DT 50 (calculated) (hydrolysis) ([4]; pH 5): 60 days; DT 50 (calculated) (hydrolysis) ([4]; pH 7): 54 days; DT 50 (calculated) (hydrolysis) ([4]; pH 9): 12 days
